This note sets out measurements from patent US4180559A, “Coated 1-(2-chlorodibenzo[b,f]oxepin-10-yl)-4-methylpiperazine compositions” (Richardson-Merrell Inc., priority 1978, dated 1979).

A short description of series [1]: Absorption into the bloodstream (general statement). The settings on record: uncoated drug; degradation at low pH in the stomach.
Series [2] in a line: Acid hydrolysis / half-life of the compound at various pH and temperature. It is filed as physicochemical. As to conditions: for half-life: 50% methanol-water. The text has this:
However, paradoxically, under the acidic conditions of maximum dissolution and absorption, the drug substance is itself the most labile from a chemical point of view. As previously indicated, the compound belongs to a class of enamines that are readily hydrolyzed under acidic aqueous conditions.

Series [3] is described as follows: Solubility of the compound in aqueous solutions and in 50% methanol-water at various pH. Type of series: physicochemical. The text has this: On the other hand, if the drug is exposed to the relatively alkaline portions of the intestinal tract, i.e., a pH greater than 7.5, the drug remains undissolved and is unavailable for absorption in humans.
Series [4] in a line: Anti-psychotic properties and liabilities (general statement).

Converted amounts (≈) assume the structure as drawn. “Also recorded” adds a separate entry of the source. Read-outs that look alike come from different tables or passages of the source.

As to `CN1CCN(C2=Cc3cc(Cl)ccc3Oc3ccccc32)CC1` [1-(2-Chlorodibenzo[b,f]oxepin-10-yl)-4-methylpiperazine], the “absorption into the bloodstream” value in series [1] was “poor and erratic absorption”. The half-life (in general, the time needed for the level to fall by half in the phase considered) is 0.12 h in series [2] (pH 1.5, 25° C., pH 1.5, 50% (v/v) methanol-water); 0.12 h in series [2] (pH 1.5, 37° C., pH 1.5); 269 h in series [2] (pH 6, 25° C., pH 6.0, 50% (v/v) methanol-water); 159 h in series [2] (pH 6, 37° C., pH 6.0). Further, the acid lability result in series [2] (aqueous conditions) is reported as “high degree of acid lability”. Further, the solubility (as a rule, the concentration that dissolves in the medium under given conditions) in series [3] (50% methanol-water system, pH 8.0) is “totally insoluble”; in series [3] (aqueous solution, pH 1.0, read-out: solubility) it was 20000 µg/mL (≈ 61.2 mM); in series [3] (aqueous solution, pH 3.0, read-out: solubility) it was 15000 µg/mL (≈ 45.9 mM); in series [3] (aqueous solution, pH 4.3, read-out: solubility) it was 4000 µg/mL (≈ 12.2 mM); in series [3] (aqueous solutions, pH greater than 7.5) it was “insoluble”; in series [3] (organic solvent or mixture, 50% methanol-water system, pH 7.0, read-out: solubility), 2000 µg/mL (≈ 6.12 mM). In series [4], the anti-psychotic properties entry is listed as “potent anti-psychotic properties; also recorded: particularly useful antipsychotic properties”. In addition, in series [4], the cardiovascular liabilities entry is reported as “minimal”. Moreover, the extrapyramidal liabilities result in series [4] is on record as “minimal”.
